Assay results from patent publication US10786471B2, “Methods and products related to glutaminase inhibitors” (Massachusetts Institute of Technology, priority 2017, dated 2020).
“Also recorded” adds a separate entry of the source. Like-named read-outs stand apart in the source and are kept apart here.

What was measured:
breast cancer cell lines = conditions: RPMI, cited from earlier work
AU565 = assay: Proliferation rate of AU565 cells overexpressing SLC7A11 with 1 μM CB-839; assay type: cell-based; conditions: SLC7A11 overexpression, RPMI vs RPMI (10 μM cystine)
Description: (§1) Proliferation rates for MDA-MB-468 and AU565 cell lines overexpressing SLC7A11 or not (from FIG. 4G) in RPMI or RPMI (10 μM cystine) with vehicle (DMSO) or 1 μM CB-839 are shown. The values represent the mean and the error bars represent ±SEM.
(§2) Cell lines growing in log phase in RPMI medium were trypsinized, counted and plated into 6 well dishes in 2 mL of RPMI medium and incubated overnight. Initial seeding density was 20,000 cells/well for A549 cells, or 50,000 cells for MCF7, AU565 and MDA-MB-468 cells. The next day, a plate of cells was trypsinized and counted to provide a number of cells at the start of the experiment. Cells were then washed twice with 2 mL of PBS, and […] of the indicated media premixed with indicated compounds or vehicles was added. Cells were then counted 4 days after adding the indicated medias. Proliferation rate was determined using the following formula:
(§3) Proliferation rate in doublings/day=[Log 2(Final Day 4 cell count/Initial Day 0 cell count)]/4 days. Cells were counted using a Cellometer Auto t$ Plus Cell Counter (Nexcelom Bioscience).

MDA-MB-468 = assay: Proliferation rate of MDA-MB-468 cells overexpressing SLC7A11 with 1 μM CB-839; assay type: cell-based; conditions: SLC7A11 overexpression, RPMI vs RPMI (10 μM cystine)
Description: as §1, §2, §3

A549 tumors = assay: Tumor glutamine anaplerosis in A549 tumor-bearing mice after oral cystine; assay type: in vivo; conditions: oral cystine before 13C5-glutamine bolus
Description: In FIG. 5A, nu/nu mice were treated orally with 2.4 g/kg cystine and plasma from these animals was serially collected at the indicated time points. Cystine concentration of the plasma was determined by GC-MS. In FIG. 5B, A549 tumor-bearing mice were treated (n=4) or not (n=3) with oral cystine prior to bolus ^13C5-glutamine injection prior to harvesting the plasma and tumors. […] In FIG. 5C, intratumoral glutamate (m+5) and α-ketoglutarate (m+5) labeling from FIG. 5B were normalized to tumor glutamine (m+5).

A549 cells [1] = assay: 13C5-glutamine tracing of glutamine anaplerosis in cultured A549 cells; assay type: cell-based, human; conditions: A549 cells cultured 8 h; high cystine (208 μM added to adult bovine serum)
From the text: Each medium included ^13C5-glutamine added to ˜33% enrichment (n=3). […] For all parts of the figure, the values represent the mean and the error bars represent ±SEM.

A549 cells [2] = assay: Proliferation rate of A549 cells with vehicle or 1 μM CB-839 in different media; assay type: cell-based, human; conditions: cystine at RPMI/DMEM levels
Description: Each medium included ^13C5-glutamine added to ˜33% enrichment (n=3). […] For all parts of the figure, the values represent the mean and the error bars represent ±SEM. […] In FIG. 8A, A549 cells were cultured in adult bovine serum with DMEM nutrient levels, adult bovine serum with DMEM amino acid levels, and adult bovine serum with DMEM amino acid levels but without supplementation of the amino acids indicated in each column. For each medium, the proliferation rate for cells grown with vehicle (DMSO) or 1 μM CB-839 is shown (n=3). […] Cell lines growing in log phase in RPMI medium were trypsinized, counted and plated into 6 well dishes in 2 mL of RPMI medium and incubated overnight. […] The next day, a plate of cells was trypsinized and counted to provide a number of cells at the start of the experiment. […] Cells were then counted 4 days after adding the indicated medias. Proliferation rate was determined using the following formula: Proliferation rate in doublings/day=[Log 2(Final Day 4 cell count/Initial Day 0 cell count)]/4 days. Cells were counted using a Cellometer Auto t$ Plus Cell Counter (Nexcelom Bioscience).

| Structure (SMILES) | IC50 (breast cancer cell lines; 'resistant' breast cancer cell lines, maximal CB-839 tested 1 μM) [µM] | IC50 (breast cancer cell lines; sensitive breast cancer cell lines) [µM] | sensitivity of proliferation to CB-839 (AU565) | sensitivity of proliferation to CB-839 (MDA-MB-468) | effect on tumor glutamine anaplerosis in vivo (A549 tumors) | effect on glutamine anaplerosis (fractional labeling from 13C5-glutamine) (A549 cells [1]) | effect of cystine on CB-839 inhibition of proliferation (A549 cells [2]) |
| --- | --- | --- | --- | --- | --- | --- | --- |
| O=C(Cc1cccc(OC(F)(F)F)c1)Nc1ccc(CCCCc2nnc(NC(=O)Cc3ccccn3)s2)nn1 [CB-839] | > 1 | < 1 | cystine-induced CB-839 sensitivity | cystine-induced CB-839 sensitivity |  |  |  |
| N[C@@H](CSSC[C@H](N)C(=O)O)C(=O)O [cystine] |  |  |  |  | increases tumor glutamine anaplerosis in vivo | enhance glutamine anaplerosis | potentiate the effects of the glutaminase inhibitor CB-839; also recorded: potentiates the glutaminase inhibitor CB-839 |
